Test [1] relates to PC-3. The experiment in a line: MTT assay, PC-3 prostate tumor cells. It is filed as cell-based, human. How it is done: (§1) Cell Culture: The human lung adenocarcinoma cell line, A549, and human prostatic cancer cell line, DUPRO, were a gift from Dr. M. Eileen Dolan, University of Chicago, Department of Medicine. A549 was grown in Ham's F-12K medium (Fisher Scientific, Itasca, Ill.) supplemented with 10% fetal bovine serum and 2 mM L-glutamine. DUPRO was grown in RPMI-1640 supplemented with 10% fetal bovine serum. The human colon carcinoma cell line, HT29, and the human breast carcinoma cell line, MCF7, were obtained from the American Type Culture Collection, Rockville, Md. HT29 cells were grown in McCoy's 5A medium (Gibco, BRL, Gaithersburg, Md.) supplemented with 10% fetal bovine serum. MCF7 cells were grown in Richter's Improved Modified Eagle's medium supplemented with 10% fetal bovine serum and 2.2 g/L sodium bicarbonate. The human prostate adenocarcinoma cell lines, LNCAP, PC-3 and DU145, were gifts from Dr. George Wilding, University of Wisconsin Comprehensive Cancer Center and the Department of Medicine, and were grown in Dulbecco's Modified Eagle's medium supplemented with a 5% fetal bovine serum. The malignant glioma cell line, U251MG NCI was obtained from the brain tumor tissue bank at the University of California, San Francisco Department of Neurosurgery, and was grown in Dulbecco's Modified Eagle's medium supplemented with 10% fetal bovine serum. DUPRO, A549 and MCF7 cells were grown in 100 units/mL penicillin and 100 μg/mL streptomycin. HT29 and U251MG NCI cells were grown in 50 g/μL gentamycin. LNCAP, PC-3 and DU145 cells were maintained in 1% antibiotic antimycotic solution (Sigma, St. Louis, Mo.). All cell cultures were maintained at 37° C. in 5% CO2/95% humidified air.
(§2) MTT assay. Exponentially growing monolayer cells were plated in 96 well plates at a density of 500 cells/well and allowed to grow for 24 h. Serially diluted drug solutions were added such that the final drug concentrations in the treatment media were between 0 and 35 μM. Cells were incubated with drug at either 4 hr or 72 hr. After 4 hr and 72 hr treatment, drugs were removed, fresh media (without) drug (100 uL) was added and cells were incubated for 6 days. After six days, 25 μL of a Dulbecco's phosphate-buffered saline solution containing 5 mg/mL of MTT (Thiazolyl blue) (Sigma) was added to each well and incubated for 4 h at 37° C. Then 100 μL of lysis buffer (20% sodium dodecyl sulfate, 50% N,N-dimethylformamide and 0.8% acetic acid, pH 4.7) was added to each well and incubated for an additional 22 h. A microplate reader (E max, Molecular Devices, Sunnyvale, Calif.) set at 570 nm was used to determine the optical density. Results were plotted as a ratio of the optical density in drug treated wells to the optical density in wells treated with vehicle alone. Plotting and estimation of ID50 values were accomplished with manufacturer supplied software.

Test [2] concerns DUPRO. Description: MTT assay, DUPRO prostate tumor cells. It is filed as cell-based, human. The note with it: Table 1, treatment time not stated. The protocol: as §1
MTT assay. Exponentially growing monolayer cells were plated in 96 well plates at a density of 500 cells/well and allowed to grow for 24 h. Serially diluted drug solutions were added such that the final drug concentrations in the treatment media were between 0 and 35 μM. […] A microplate reader (E max, Molecular Devices, Sunnyvale, Calif.) set at 570 nm was used to determine the optical density. […]
Background: Formazan colour is commonly taken as a measure of viable cells.

Test [3] relates to DU145. Description: MTT assay, DU145 prostate tumor cells. Format: cell-based, human. The note with it: Table 1; for ID50 (μM) of different prostate cells DU145: MTT assay, treatment time not stated. The protocol: as §1, §2
Test [4] deals with A549. The experiment in a line: MTT assay, A549 lung tumor cells. It is filed as cell-based. The settings on record: Homo sapiens, read-out: ID50 (μM) of different Tumor cells Lung A549. How it is done: as §1, §2
Test [5] has as its system HT-29. Description: MTT assay, HT-29 colon tumor cells. It is filed as cell-based. The note with it: Homo sapiens, Table 2, treatment time not stated, read-out: ID50 (μM) of different Tumor cells Colon HT-29. The protocol:
as §1, §2

Test [6] concerns U251-MG. The experiment in a line: MTT assay, U251-MG brain tumor cells. It is filed as cell-based, human. How it is done:
as §1, with “The malignant glioma cell line, U251MG NCI was obtained from the brain tumor tissue bank at the University of California, San Francisco Department of Neurosurgery, and was grown in Dulbecco's Modified Eagle's medium supplemented with 10% fetal bovine serum. DUPRO, A549 and MCF7 cells were grown in 100 units/mL penicillin and 100 μg/mL streptomycin. HT29 and U251MG NCI cells were grown in 50 g/μL gentamycin. LNCAP, PC-3 and DU145 cells were maintained in 1% antibiotic antimycotic solution (Sigma, St. Louis, Mo.). All cell cultures were maintained at 37° C. in 5% CO2/95% humidified air.” left out
MTT assay. […] A microplate reader (E max, Molecular Devices, Sunnyvale, Calif.) set at 570 nm was used to determine the optical density. […]

Test [7] relates to MCF7. The experiment in a line: MTT assay, MCF7 breast tumor cells. Format: cell-based, human. The settings on record: Table 2, treatment time not stated. The protocol: as §1, §2
[8] abbreviates: Homo sapiens, PC-3, Table 1, MTT assay, treatment time not stated, read-out: ID50 (μM) of different prostate cells PC-3.
Setting [9] is: Table 2, treatment time not stated.

Experimental findings from patent US7253207B2, “Quinones as disease therapies” (Cellgate, Inc., priority 1999, dated 2007) are described below.

SMILES strings stand for the structures. Read-outs that look alike come from different tables or passages of the source. *1 amine or outer side, *2 acyl side, *3 side chain or, on linkers, in order; H or OH if unused. Where a SMILES comes first, the peptide text is derived from it. [ ]: non-standard residue; d: D form. The star is where a group is joined. X1 = CC1(C)OC2=C(CC1O*)C(=O)C(=O)c1ccccc12; Morpholide = C1CN(*)CCO1; CO = O=C([*:1])[*:2]; βAla = NCCC(=O)O

In the case of `O=C1C=C(OCCCCCCO)c2ccccc2C1=O` [SL-11051], the results for the IC50 in test [1] (setting [8]), in test [4] (setting [9]) and in test [5] were 17.1 µM, 17.2 µM and 20 µM, respectively. Further, the “ID50 (μM) of different prostate cells DUPRO” value in test [2] was found to be 19.3 µM. Further, in test [3], the “ID50 (μM) of different prostate cells DU145” value amounted to 11.16 µM.

Regarding `COC(=O)c1cc(NC(=O)CCCCOC2=CC(=O)C(=O)c3ccccc32)cn1C` [SL-11052], the IC50 in test [4] (setting [9]) was found to be 26.9 µM.

As to `O=C(OCCCCCCOC1=CC(=O)C(=O)c2ccccc21)OCCCCCCOC1=CC(=O)C(=O)c2ccccc21` [SL-11053], the IC50 in test [4] (setting [9]) is 7.39 µM; in test [5] it was 2.8 µM.

With `CC(C)(C)C(=O)OC1=CC(=O)C(=O)c2ccccc21` [SL-11054], the IC50 in test [4] (setting [9]) and in test [5] was over 31.2 µM each time.

Turning to `CC1(C)CCC2=C(O1)c1ccccc1C(=O)C2=O` [SL-11058], the “ID50 (μM) of different Tumor cells Brain U251-MG” value in test [6] (Table 4, non-quinone compounds) was over 31.25 µM.

For the compound `O=C1C=C(OCCCCCNc2c3ccccc3nc3ccccc23)c2ccccc2C1=O` [SL-11059, Acridine-quinone], the figures for the IC50 in test [1] (setting [8]), in test [4] (setting [9]) and in test [5] were 4.3 µM, 15 µM and 10.1 µM, respectively.

Turning to `Cl.O=C1C=C(OCCCCCNC2CCCCC2)c2ccccc2C1=O` [SL-11060], the IC50 in test [4] (setting [9]) and in test [5] was over 31.2 µM in each case. Also, the “ID50 (μM) of different Tumor cells Breast MCF7” value in test [7] was determined as 17.23 µM. Moreover, the “ID50 (μM) of different Tumor cells Brain U251-MG” value in test [6] (setting [9]) is over 31.25 µM.

For the compound `N#Cc1ccc(OCCCCCCOC2=CC(=O)C(=O)c3ccccc32)cc1` [SL-11062], the values for the IC50 in test [1] (setting [8]) and in test [4] (setting [9]) were 1.71 µM and 18.6 µM, respectively.

Regarding `CN1CCN(c2ccc3nc(-c4ccc5nc(-c6ccc(O)cc6)[nH]c5c4)[nH]c3c2)CC1` [SL-11063], the IC50 in test [1] (Homo sapiens, PC-3, Table 3, non-quinone structure, MTT assay, read-out: ID50 (μM) of different prostate cells PC-3) is over 31.2 µM; in test [4] (Table 4, non-quinone compounds), over 31.2 µM.

For the compound `O=C1C=C(OCCCCCCCc2ccc(Nc3c4ccccc4nc4ccccc34)cc2)c2ccccc2C1=O` [SL-11064, Quinone-anilinoacridine], the IC50 came to 0.7 µM in test [1] (setting [8]) and 9.3 µM in test [4] (setting [9]). For the same compound, the “ID50 (μM) of different prostate cells DUPRO” value in test [2] amounted to 2.2 µM. In addition, the “ID50 (μM) of different prostate cells DU145” value in test [3] was determined as 0.13 µM.

With `O=C1C=C(OCCCCCCOC2=CC(=O)c3ccccc3C2=O)c2ccccc2C1=O` [SL-11065], the IC50 in test [1] (setting [8]) worked out at 1.4 µM; in test [4] (setting [9]) it was 2.13 µM.

With `O=C1C=C(OCCCCCCOc2ccc(OC3OC(CO)C(O)C(O)C3O)cc2)c2ccccc2C1=O` (centres unmarked) [SL-11066], the IC50 in test [1] (setting [8]) and in test [4] (setting [9]) was over 31.2 µM each time.

In the case of `O=C1C=C(OCCCCCCOc2ccccc2)c2ccccc2C1=O` [SL-11068], the IC50 in test [1] (setting [8]) amounted to 1.5 µM; in test [4] (setting [9]) it was 24 µM.

As for `CN(C)c1cccc(OC(=O)CCCCOC2=CC(=O)C(=O)c3ccccc32)c1` [SL-11074], the IC50 in test [1] (setting [8]) is 4.6 µM.

`NCCCCCC(=O)OCCCCCCOC1=CC(=O)C(=O)c2ccccc21` [SL-11075]: the IC50 in test [1] (setting [8]) was determined as 2 µM.

Turning to `CCCCN(CC1=CC(=O)C(=O)c2ccccc21)C(C)=O` [SL-11087], the results for the IC50 in test [1] (setting [8]), in test [4] (setting [9]) and in test [5] were 2.4 µM, 19.8 µM and 6.05 µM, respectively. In test [7], the “ID50 (μM) of different Tumor cells Breast MCF7” value stood at 4.0 µM.

For the compound `CCCCN(CC1=CC(=O)C(=O)c2ccccc21)C(=O)C(F)(F)F` [SL-11088], the IC50 in test [1] (setting [8]), in test [4] (setting [9]) and in test [5] was over 31.2 µM each time. For the same compound, the “ID50 (μM) of different Tumor cells Breast MCF7” value in test [7] was over 31.25 µM.

With `CCCCN/C=C1\C=C(O)C(=O)c2ccccc21` [SL-11089], the IC50 in test [1] (setting [8]) was found to be 11 µM. In test [7], the “ID50 (μM) of different Tumor cells Breast MCF7” value was over 31.25 µM.

Take `CCCCN(CC1=C(Br)C(=O)C(=O)c2ccccc21)C(C)=O` [SL-11095]: the IC50 is 4.2 µM in test [1] (setting [8]), over 31.2 µM in test [4] (setting [9]) and 22.1 µM in test [5]. Moreover, the “ID50 (μM) of different Tumor cells Breast MCF7” value in test [7] came out at 20.6 µM.

Turning to `CCCCN(CC1=CC(=O)C(=O)c2ccccc21)C(=O)CCC(=O)N1CCOCC1` [SL-11096], the values for the IC50 in test [1] (setting [8]), in test [4] (setting [9]) and in test [5] were 3.6 µM, 17.4 µM and 3.4 µM, respectively. Besides, the “ID50 (μM) of different Tumor cells Breast MCF7” value in test [7] was 3.8 µM.

On to `O=C1C=C(CCCCCCCCc2ccc(Nc3c4ccccc4nc4ccccc34)cc2)c2ccccc2C1=O` [SL-11125, Quinone-acridine], for which the IC50 turned out to be 5.9 µM in test [1] (setting [8]), 28 µM in test [4] (setting [9]) and 5.7 µM in test [5]. For the same compound, the “ID50 (μM) of different prostate cells DUPRO” value in test [2] stood at 7.9 µM. Besides, the “ID50 (μM) of different prostate cells DU145” value in test [3] was determined as 0.13 µM. In test [7], the “ID50 (μM) of different Tumor cells Breast MCF7” value stood at 5.1 µM.

For the compound `CC(C)CC(NC(=O)C(CCCCN)NC(=O)C(CO)NC(=O)N1CCOCC1)C(=O)NC(CCC(N)=O)C(=O)NCCC(=O)OC1CC2=C(OC1(C)C)c1ccccc1C(=O)C2=O` (stereo not drawn) [SL-11147, Morpholino-Ser-Lys-Leu-Gln-β-Ala-β-Lapachone] ({Morpholide-CO}-SKLQ[βAla]-X1; configuration not given here), the IC50 was 6.3 µM in test [1] (Table 1, 4 hr, read-out: ID50 (μM) PC-3 (4 hr)); 1.24 µM in test [1] (Table 1, 72 hr, read-out: ID50 (μM) PC-3 (72 hr)); 28.1 µM in test [3] (4 hr, read-out: ID50 (μM) DU145 (4 hr)); 2.01 µM in test [3] (72 hr, read-out: ID50 (μM) DU145 (72 hr)).
